# Assay results as given in patent US11590139B2, “Substituted aminopurine compounds, compositions thereof, and methods of treatment therewith” (Signal Pharmaceuticals, LLC, priority 2014, dated 2023).
# Test system: Lox-IMVI melanoma cell line
# Assay: Lox-IMVI anti-proliferative assay (growth inhibition, Cell Titer-Glo)
# Format: cell-based, human
# Details: Homo sapiens; IC50 activity level in the cell-based Lox-IMVI anti-proliferative assay; read-out: Activity
# Summary of the method: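 IC50 values reflect the concentration giving 50% of DMSO-control luminescence after 72 h of treatment, fitted with a four-parameter logistic model. Cells were cultured in RPMI + 10% FBS with compound from 0.5 nM to 10 μM.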
row,IC50 [nM],Structure (SMILES)
1,> 1000,"CC(C)(C)OC(=O)N1CCC[C@@H](Nc2ncc3nc(Nc4c(F)cc(Cl)cc4F)n([C@H]4CC[C@@H](C(N)=O)CC4)c3n2)C1 [Example 162, (R)-tert-butyl 3-(9-((1s,4S)-4-carbamoylcyclohexyl)-8-(4-chloro-2,6-difluorophenylamino)-9H-purin-2-ylamino)piperidine-1-carboxylate]"
2,250 to 500,"NC(=O)[C@H]1CC[C@@H](n2c(Nc3ccc(Cl)c(F)c3F)nc3cnc(NC4CCOCC4)nc32)CC1 [Example 72, (1s,4s)-4-(8-(4-chloro-2,3-difluorophenylamino)-2-(tetrahydro-2H-pyran-4-ylamino)-9H-purin-9-yl)cyclohexanecarboxamide]"
3,> 1000,"NC(=O)[C@H]1CC[C@@H](n2c(Nc3c(F)cc(Cl)cc3F)nc3cnc(N[C@@H]4COC[C@H]4O)nc32)CC1 [Example 316, (1S,4s)-4-(8-(4-chloro-2,6-difluorophenylamino)-2-((3R,4S)-4-hydroxytetrahydrofuran-3-ylamino)-9H-purin-9-yl)cyclohexanecarboxamide]"
4,250 to 500,"NC(=O)[C@H]1CC[C@@H](n2c(Nc3c(F)cc(Cl)cc3Cl)nc3cnc(NC4CC(F)(F)C4)nc32)CC1 [Example 230, (1s,4s)-4-(8-(2,4-dichloro-6-fluorophenylamino)-2-(3,3-difluorocyclobutylamino)-9H-purin-9-yl)cyclohexanecarboxamide]"
5,< 250,NC(=O)[C@H]1CC[C@@H](n2c(Nc3c(F)cc(Cl)cc3Cl)nc3cnc(NC4CCOCC4)nc32)CC1 [Example 40]
6,> 1000,"CS(=O)(=O)N1CCC(Nc2ncc3nc(Nc4ccc(Cl)cc4Cl)n([C@H]4CC[C@@H](C(N)=O)CC4)c3n2)CC1 [Example 299, (1s,4s)-4-(8-(2,4-dichlorophenylamino)-2-(1-(methylsulfonyl)piperidin-4-ylamino)-9H-purin-9-yl)cyclohexanecarboxamide]"

# Same assay, conditions: Homo sapiens; Lox-IMVI anti-proliferative assay, IC50 activity level; read-out: Activity
row,IC50 [nM],Structure (SMILES)
1,> 1000,"NC(=O)[C@H]1CC[C@@H](n2c(Nc3c(Cl)cc(F)cc3Cl)nc3cnc(N[C@H]4CCCC[C@H]4O)nc32)CC1 [Example 516, (1R,4s)-4-(8-(2,6-dichloro-4-fluorophenylamino)-2-((1S,2R)-2-hydroxycyclohexylamino)-9H-purin-9-yl)cyclohexanecarboxamide]"
2,250 to 500,"NC(=O)[C@H]1CC[C@@H](n2c(Nc3c(F)cc(Cl)cc3F)nc3cnc(N[C@@H]4CCO[C@H](CO)C4)nc32)CC1 [Example 445, (1S,4s)-4-(8-(4-chloro-2,6-difluorophenylamino)-2-((2S,4R)-2-(hydroxymethyl)tetrahydro-2H-pyran-4-ylamino)-9H-purin-9-yl)cyclohexanecarboxamide]"

# Same assay, conditions: Homo sapiens; Lox-IMVI melanoma cell line, anti-proliferative assay; read-out: Activity (IC50 activity level)
row,IC50 [nM],Structure (SMILES)
1,> 1000,"C[C@]1(C(N)=O)CC[C@@H](n2c(Nc3c(F)cc(F)cc3F)nc3cnc(N[C@@H]4CCC[C@@H](O)C4)nc32)CC1 [Example 617, (1S,4s)-4-(2-((1R,3R)-3-hydroxycyclohexylamino)-8-(2,4,6-trifluorophenylamino)-9H-purin-9-yl)-1-methylcyclohexanecarboxamide]"
2,> 1000,"NC(=O)[C@H]1CC[C@@H](n2c(Nc3c(F)cc(F)cc3F)nc3cnc(N[C@@H]4CCCN(Cc5ccccc5)C4)nc32)CC1 [Example 756, (1S,4s)-4-(2-((R)-1-benzylpiperidin-3-ylamino)-8-(2,4,6-trifluorophenylamino)-9H-purin-9-yl)cyclohexanecarboxamide]"
3,< 250,"C[C@]1(C(N)=O)CC[C@@H](n2c(Nc3c(Cl)cc(Cl)cc3Cl)nc3cnc(NC4CCC4)nc32)CC1 [Example 603, (1s,4s)-4-(2-(cyclobutylamino)-8-(2,4,6-trichlorophenylamino)-9H-purin-9-yl)-1-methylcyclohexanecarboxamide]"
4,250 to 500,"C[C@]1(C(N)=O)CC[C@@H](n2c(Nc3c(F)cc(F)cc3Cl)nc3cnc(N[C@H]4CC[C@H](O)C4)nc32)CC1 [Example 644, (1R,4s)-4-(8-(2-chloro-4,6-difluorophenylamino)-2-((1S,3S)-3-hydroxycyclopentylamino)-9H-purin-9-yl)-1-methylcyclohexanecarboxamide]"
